According to the supplement of paper PMC9938120:

Key:
Test in all cases: drug sensitivity score (DSS3, normalised partial AUC of % inhibition dose-response) (DSS (score)); higher = more sensitive (stronger inhibition of viability); extreme values may be limits of the assay
FMOC25_1 = patient-derived low-grade serous ovarian cancer cells; conditions: 72 h; library: FO4B; assay format: 2D, 384-well, CellTiter-Glo
Summary of the method: (§1)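 The drug sensitivity score is calculated as a partial area under the percent-inhibition dose-response curve, divided by the log of the upper asymptote; higher scores mean more sensitive. For this score, early-passage (under 10) patient-derived ovarian cancer cells were exposed on 384-well flat clear-bottom plates to compounds at five concentrations across a 10,000-fold range for 72 h at 37 °C, 5% CO2. Viability was read with CellTiter-Glo and processed in Breeze.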

FMOC02_2 = patient-derived low-grade serous ovarian cancer cells; conditions: 72 h; library: FO5A; assay format: 2D, 384-well, CellTiter-Glo
Summary of the method: as §1

FMOC02_3 = patient-derived low-grade serous ovarian cancer cells; conditions: 72 h; library: FO5A; assay format: 2D, 384-well, CellTiter-Glo
Summary of the method: as §1

FMOC03 = patient-derived mucinous ovarian cancer cells; conditions: 72 h; library: FO5A; assay format: 2D, 384-well, CellTiter-Glo
Summary of the method: as §1

FMOC06 = patient-derived mucinous ovarian cancer cells; conditions: 72 h; library: FO5A; assay format: 2D, 384-well, CellTiter-Glo
Summary of the method: as §1

FMOC09 = patient-derived high-grade serous ovarian cancer cells; conditions: 72 h; library: FO5A; assay format: 2D, 384-well, CellTiter-Glo
Summary of the method: as §1

FMOC14 = patient-derived high-grade serous ovarian cancer cells; conditions: 72 h; library: FO5A; assay format: 2D, 384-well, CellTiter-Glo
Summary of the method: as §1

FMOC22 = patient-derived mucinous ovarian cancer cells; conditions: 72 h; library: FO5A; assay format: 2D, 384-well, CellTiter-Glo
Summary of the method: as §1

FMOC24 = patient-derived high-grade serous ovarian cancer cells; conditions: 72 h; library: FO5A; assay format: 2D, 384-well, CellTiter-Glo
Summary of the method: as §1

FMOC25_2 = patient-derived low-grade serous ovarian cancer cells; conditions: 72 h; library: FO5A; assay format: 2D, 384-well, CellTiter-Glo
Summary of the method: as §1

C#Cc1cccc(Nc2ncnc3cc(OC)c(OCCCCCCC(=O)NO)cc23)c1 [CUDC-101]
drug sensitivity score (FMOC25_1): 17

O=P1(N(CCCl)CCCl)NCCCO1 (configuration not stated) [Cyclophosphamide]
drug sensitivity score (FMOC25_1): 0

CCCNC(=O)Nc1ccc(Oc2ncnc3cc(OC)c(OC)cc23)cc1Cl [KRN-633]
drug sensitivity score (FMOC25_1): 0

Cn1c(CCCC(=O)O)nc2cc(N(CCCl)CCCl)ccc21 [Bendamustine]
drug sensitivity score (FMOC25_1): 0

CCn1c(=O)c(-c2cc[nH]n2)cc2c(C)nc(N)nc21 [Voxtalisib]
drug sensitivity score (FMOC25_1): 10.6

CN(C)c1nc(N(C)C)nc(N(C)C)n1 [Altretamine]
drug sensitivity score (FMOC25_1): 0

CCc1cc(Nc2nccc(-c3c(-c4ccc(OC)c(C(=O)Nc5c(F)cccc5F)c4)nc4ccccn34)n2)c(OC)cc1N1CCC(N2CCN(S(C)(=O)=O)CC2)CC1
drug sensitivity score (FMOC25_1): 3.9

CO[C@H]1/C=C\C=C(/C)C(=O)NC2=CC(=O)C(NCCN(C)C)=C(C[C@@H](C)C[C@H](OC)[C@H](O)[C@@H](C)/C=C(\C)[C@@H]1OC(N)=O)C2=O [Alvespimycin]
drug sensitivity score (FMOC25_1): 4.1

CCNC(=O)C[C@@H]1N=C(c2ccc(Cl)cc2)c2cc(OC)ccc2-n2c(C)nnc21
drug sensitivity score (FMOC25_1): 3.8

COc1cc2c(cc1O)CC[C@@H]1[C@@H]2CC[C@]2(C)[C@@H](O)CC[C@@H]12 [2-methoxyestradiol]
drug sensitivity score (FMOC25_1): 4.1

O=C1NC(=O)/C(=C/c2ccc3nccc(-c4ccncc4)c3c2)S1
drug sensitivity score (FMOC25_1): 9.8

CCNC(=O)Nc1ccc(-c2nc3c(c(N4CCOC[C@@H]4C)n2)CCN(C2COC2)C3)cc1 [RG-7603]
drug sensitivity score (FMOC25_1): 7.8

CC(=O)c1cnc2ccc(-c3cc(Cl)c(O)c(Cl)c3)nc2c1N[C@H]1CC[C@H](CN(C)C)CC1 [OTSSP167]
drug sensitivity score (FMOC25_1): 7.7

COc1ccc(-c2cc3c(C)nc(N)nc3n([C@H]3CC[C@H](OCCO)CC3)c2=O)cn1
drug sensitivity score (FMOC25_1): 23.8

C=CCn1c(=O)c2cnc(Nc3ccc(N4CCN(C)CC4)cc3)nc2n1-c1cccc(C(C)(C)O)n1 [MK1775]
drug sensitivity score (FMOC25_1): 11.5

NC(=O)c1ccc(I)c([N+](=O)[O-])c1 [Iniparib]
drug sensitivity score (FMOC25_1): 0

C[C@]12O[C@H](C[C@]1(O)CO)n1c3ccccc3c3c4c(c5c6ccccc6n2c5c31)CNC4=O [Lestaurtinib]
drug sensitivity score (FMOC25_1): 5.3

Cn1cc(-c2ccc3nnc(Sc4ccc5ncccc5c4)n3n2)cn1 [SGX-523]
drug sensitivity score (FMOC25_1): 0

CN(c1ccccc1CNc1nc(Nc2ccc3c(c2)CC(=O)N3)ncc1C(F)(F)F)S(C)(=O)=O
drug sensitivity score (FMOC25_1): 7

CCN1CCN(c2ccc(Nc3cc(N(C)C(=O)Nc4c(Cl)c(OC)cc(OC)c4Cl)ncn3)cc2)CC1 [NVP-BGJ398]
drug sensitivity score (FMOC25_1): 0

CC(C)CC(=O)Nc1n[nH]c2c1CN(C(=O)C1CCN(C)CC1)C2(C)C
drug sensitivity score (FMOC25_1): 5.5

O=C(c1ccc(/C=C/c2n[nH]c3ccccc23)cc1)N1CCNCC1 [KW-2449]
drug sensitivity score (FMOC25_1): 0

NC(=O)Nc1sc(-c2ccc(F)cc2)cc1C(N)=O [TPCA-1]
drug sensitivity score (FMOC25_1): 2.9

CCCCC/C=C/C=C1/C(=O)C=C[C@@H]1C/C=C\CCCC(=O)O [15D-PGJ2]
drug sensitivity score (FMOC25_1): 0

Cn1nccc1Nc1nccc(-c2ccn([C@H](CO)c3ccc(Cl)c(F)c3)c(=O)c2)n1 [GDC-0994]
drug sensitivity score (FMOC25_1): 6

Cc1ccccc1C(C(=O)NC1CCCCC1)N(C(=O)Cn1ccnc1C)c1cccc(F)c1 (configuration not stated) [AGI-5198]
drug sensitivity score (FMOC25_1): 0

COC1=CC(c2cc3ccccc3[nH]2)=N/C1=C\c1[nH]c(C)cc1C [Obatoclax]
drug sensitivity score (FMOC25_1): 1.8

O=P1(NCCCl)OCCCN1CCCl (configuration not stated) [Ifosfamide]
drug sensitivity score (FMOC25_1): 0

Cc1c(NC(=O)OC[C@@H]2COCCN2)cn2ncnc(Nc3ccc4c(cnn4Cc4cccc(F)c4)c3)c12
drug sensitivity score (FMOC25_1): 9.1

O=C(O)CCCc1ccc(N(CCCl)CCCl)cc1 [Chlorambucil]
drug sensitivity score (FMOC25_1): 0

CNC(=O)c1cc(Oc2ccc(NC(=O)Nc3cc(C(C)(C)C)nn3-c3ccc4ncccc4c3)c(F)c2)ccn1 [Rebastinib]
drug sensitivity score (FMOC25_1): 0

S=P(N1CC1)(N1CC1)N1CC1 [Thio-TEPA]
drug sensitivity score (FMOC25_1): 0.7

O=NN(CCCl)C(=O)NCCCl [Carmustine]
drug sensitivity score (FMOC25_1): 0.4

COc1cc(C(=O)NC2CCN(C)CC2)c(F)cc1Nc1ncc2c(n1)N(C1CCCC1)CC(F)(F)C(=O)N2C [TAK-960]
drug sensitivity score (FMOC25_1): 0

COc1cc(F)c(F)c(Nc2ccc(I)cc2F)c1NS(=O)(=O)C1(C[C@H](O)CO)CC1 [Refametinib]
drug sensitivity score (FMOC25_1): 14.8

CCN1CCN(Cc2ccc(-c3cc4c(N[C@H](C)c5ccccc5)ncnc4[nH]3)cc2)CC1 [NVP-AEE788]
drug sensitivity score (FMOC25_1): 6

CCOc1cc2ncc(C#N)c(Nc3ccc(F)c(Cl)c3)c2cc1NC(=O)/C=C/CN(C)C [Pelitinib]
drug sensitivity score (FMOC25_1): 13.1

C[C@]12C=CC(=O)C=C1CC[C@@H]1[C@@H]2C(=O)C[C@@]2(C)[C@H]1CC[C@]2(O)C(=O)CO [Prednisone]
drug sensitivity score (FMOC25_1): 0

CC(C)n1nc(-c2ccc3oc(N)nc3c2)c2c(N)ncnc21 [MLN-0128]
drug sensitivity score (FMOC25_1): 21

Cn1c(=O)c(F)c(Nc2ccc(I)cc2F)c2c(=O)n(C[C@@H](O)CO)cnc21 [TAK-733]
drug sensitivity score (FMOC25_1): 13.2

CN(C[C@@H]1COCCO1)S(=O)(=O)Nc1ccc2ccc3ncc(-c4cnn(C)c4)cc3c(=O)c2c1 [MK-2461]
drug sensitivity score (FMOC25_1): 2.8

O=C(O)c1ccc(Nc2ncc3c(n2)-c2ccc(Cl)cc2C(c2c(F)cccc2F)=NC3)cc1 [MLN-8054]
drug sensitivity score (FMOC25_1): 0

Cc1nc(C(=O)NCC(=O)O)c(O)c2ccc(Oc3ccccc3)cc12 [FG-4592]
drug sensitivity score (FMOC25_1): 0

O=C(NC[C@H](O)CO)c1ccncc1Nc1ccc(I)cc1F [Pimasertib]
drug sensitivity score (FMOC25_1): 14.7

CN(N=O)C(=O)N[C@@H](C=O)[C@@H](O)[C@H](O)[C@H](O)CO [Streptozocin]
drug sensitivity score (FMOC25_1): 0

c1ccc(Cn2c(-c3ccc(OC[C@H](C4CCNCC4)n4c(-c5ccccc5)nc5ccccc54)cc3)nc3ccccc32)cc1 [deltarasin]
drug sensitivity score (FMOC25_1): 5.5

O=NN(CCCl)C(=O)NC1CCCCC1 [Lomustine]
drug sensitivity score (FMOC25_1): 0

CCN(CC)C(=S)SSC(=S)N(CC)CC [Disulfiram]
drug sensitivity score (FMOC25_1): 3.7

Cc1cc(-c2ncc(-c3cccnc3)cc2/C=C/c2ccccc2)cnc1-c1cccnc1 [Pyridoclax]
drug sensitivity score (FMOC25_1): 5.5

O=C(O)CSc1cc(NS(=O)(=O)c2ccc(Br)cc2)c2ccccc2c1O [UMI-77]
drug sensitivity score (FMOC25_1): 14.3

Cc1nc(N)sc1-c1ccnc(Nc2ccc(N3CCOCC3)cc2)n1 [CYC-116]
drug sensitivity score (FMOC25_1): 6.4

Cc1ccc(NS(=O)(=O)c2cccc(C#N)c2)c2[nH]cc(C#N)c12 [E7820]
drug sensitivity score (FMOC02_2): 4.4 | drug sensitivity score (FMOC02_3): 10.1 | drug sensitivity score (FMOC03): 3.9 | drug sensitivity score (FMOC06): 1.5 | drug sensitivity score (FMOC09): 12.4 | drug sensitivity score (FMOC14): 4.5 | drug sensitivity score (FMOC22): 10.5 | drug sensitivity score (FMOC24): 16.3 | drug sensitivity score (FMOC25_2): 7.4

CC(=O)c1cnc2ccc(-c3cc(Cl)c(O)c(Cl)c3)nc2c1N[C@H]1CC[C@H](CN(C)C)CC1 [OTS167]
drug sensitivity score (FMOC02_2): 13.5 | drug sensitivity score (FMOC02_3): 12.6 | drug sensitivity score (FMOC03): 7.7 | drug sensitivity score (FMOC06): 6.3 | drug sensitivity score (FMOC09): 13.1 | drug sensitivity score (FMOC14): 13 | drug sensitivity score (FMOC22): 7.2 | drug sensitivity score (FMOC24): 12.8 | drug sensitivity score (FMOC25_2): 15.1

CO[C@@H](C)Cn1c(=O)n(C)c2cnc3ccc(-c4cncc(C(C)(C)O)c4)cc3c21
drug sensitivity score (FMOC02_2): 15.3 | drug sensitivity score (FMOC02_3): 17 | drug sensitivity score (FMOC03): 9.2 | drug sensitivity score (FMOC06): 11 | drug sensitivity score (FMOC09): 7.4 | drug sensitivity score (FMOC14): 8.3 | drug sensitivity score (FMOC22): 9.1 | drug sensitivity score (FMOC24): 7.6 | drug sensitivity score (FMOC25_2): 15.7

COc1cc2c(Nc3ccc(Cl)c(Cl)c3F)ncnc2cc1OC[C@@H]1C[C@@H]2CN(C)C[C@@H]2C1 [Tesevatinib]
drug sensitivity score (FMOC02_2): 20.6 | drug sensitivity score (FMOC02_3): 21 | drug sensitivity score (FMOC03): 18.9 | drug sensitivity score (FMOC06): 4.4 | drug sensitivity score (FMOC09): 16.3 | drug sensitivity score (FMOC14): 6.5 | drug sensitivity score (FMOC22): 2 | drug sensitivity score (FMOC24): 2.4 | drug sensitivity score (FMOC25_2): 18.5

CCCCCCCCCCCCCCCCOP(=O)([O-])OCC[N+](C)(C)C [Miltefosine]
drug sensitivity score (FMOC02_2): 5.5 | drug sensitivity score (FMOC02_3): 6.9 | drug sensitivity score (FMOC03): 5.6 | drug sensitivity score (FMOC06): 9.1 | drug sensitivity score (FMOC09): 8.4 | drug sensitivity score (FMOC14): 8.7 | drug sensitivity score (FMOC22): 10 | drug sensitivity score (FMOC24): 9.8 | drug sensitivity score (FMOC25_2): 5.1

C[C@@H]1COCCN1c1cc(C2([S@](C)(=N)=O)CC2)nc(-c2cc[nH]c3nccc2-3)n1 [AZD6738]
drug sensitivity score (FMOC02_2): 7.8 | drug sensitivity score (FMOC02_3): 11.1 | drug sensitivity score (FMOC03): 5 | drug sensitivity score (FMOC06): 6.9 | drug sensitivity score (FMOC09): 7.7 | drug sensitivity score (FMOC14): 10.7 | drug sensitivity score (FMOC22): 7.4 | drug sensitivity score (FMOC24): 8 | drug sensitivity score (FMOC25_2): 12.5

C=CCn1c(=O)c2cnc(Nc3ccc(N4CCN(C)CC4)cc3)nc2n1-c1cccc(C(C)(C)O)n1 [AZD1775]
drug sensitivity score (FMOC02_2): 10.8 | drug sensitivity score (FMOC02_3): 17.5 | drug sensitivity score (FMOC03): 6.1 | drug sensitivity score (FMOC06): 8.5 | drug sensitivity score (FMOC09): 7.9 | drug sensitivity score (FMOC14): 14.6 | drug sensitivity score (FMOC22): 6.9 | drug sensitivity score (FMOC24): 8.15 | drug sensitivity score (FMOC25_2): 15.2

CCOc1ccccc1-n1c(C(C)N2CCN(C(=O)COc3ccc(Cl)cc3)CC2)nc2ccccc2c1=O (configuration not stated) [Erastin]
drug sensitivity score (FMOC02_2): 0.3 | drug sensitivity score (FMOC02_3): 3.9 | drug sensitivity score (FMOC03): 6.1 | drug sensitivity score (FMOC06): 8 | drug sensitivity score (FMOC09): 2.2 | drug sensitivity score (FMOC14): 14.6 | drug sensitivity score (FMOC22): 0.2 | drug sensitivity score (FMOC24): 0.1 | drug sensitivity score (FMOC25_2): 4.7

Cn1nccc1Nc1nccc(-c2ccn([C@H](CO)c3ccc(Cl)c(F)c3)c(=O)c2)n1 [Ravoxertinib]
drug sensitivity score (FMOC02_2): 7.1 | drug sensitivity score (FMOC02_3): 8.3 | drug sensitivity score (FMOC03): 4.6 | drug sensitivity score (FMOC06): 8.7 | drug sensitivity score (FMOC09): 1.9 | drug sensitivity score (FMOC14): 0 | drug sensitivity score (FMOC22): 3.9 | drug sensitivity score (FMOC24): 5.5 | drug sensitivity score (FMOC25_2): 6.3
